This passage reports IC50, AC50 and EC50 results from ChEMBL document CHEMBL1201862, “PubChem BioAssay data set” (2004).

“And” between values parts separate entries of the source, which are not always exact repeats. Equal values may be shown once. The source made the active and inactive calls.

The target of assay [1] is Photoreceptor-specific nuclear receptor (Homo sapiens, UniProt Q9Y5X4). The assay is classed as functional.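 Note: potency for compounds that break the NR2E3 corepressor complex and count as activators.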
For assay [2], the target named is Heat shock protein HSP 90-alpha (Homo sapiens, UniProt P07900). In words: Luminescence-based dose response biochemical high throughput screening assay for inhibitors of the Heat Shock Protein 90 (HSP90). [Related pubchem assays: 1831 (Summary AID.), 1846 (Confirmation screen.), 1789 (Primary screen.)].
Assay [3] concerns the target Protein disulfide-isomerase A6 (Homo sapiens, UniProt Q15084). In words: inhibitors of ERp5-mediated insulin aggregation, dose response, biochemical, turbidity, absorbance 650 nm, cherry-picked samples (AID 720566).
In assay [4] the target is T1, Dual specificity protein phosphatase 3 (Homo sapiens, UniProt P51452). The assay is described as follows: VHR1 phosphatase inhibitors, primary screen, biochemical, absorbance, uHTS (AID 1654).
Assay [5] deals with Likely tRNA 2'-phosphotransferase (Candida albicans (strain SC5314 / ATCC MYA-2876) (Yeast), UniProt Q5A7N4). The assay is described as follows: TPT1 tRNA phosphotransferase inhibitors, dose response, biochemical, fluorescence polarization (AID 2160). A general note: Fluorescence polarisation rises when a labelled molecule tumbles more slowly, as on binding a larger partner.

In assay [6] the target is T1, Dual specificity protein phosphatase 3. The assay is described as follows: SAR VHR1 Fluorescent Assay for In Vitro dose response studies. [Related pubchem assays (depositor defined):AID1654, AID1661, AID1878, AID1992, AID2004, AID2070, AID2085]. The assay is classed as functional.
For assay [7], the target named is T2, Tyrosine-protein phosphatase non-receptor type 7 (Homo sapiens, UniProt P35236).
T2 sequence (P35236 whole entry): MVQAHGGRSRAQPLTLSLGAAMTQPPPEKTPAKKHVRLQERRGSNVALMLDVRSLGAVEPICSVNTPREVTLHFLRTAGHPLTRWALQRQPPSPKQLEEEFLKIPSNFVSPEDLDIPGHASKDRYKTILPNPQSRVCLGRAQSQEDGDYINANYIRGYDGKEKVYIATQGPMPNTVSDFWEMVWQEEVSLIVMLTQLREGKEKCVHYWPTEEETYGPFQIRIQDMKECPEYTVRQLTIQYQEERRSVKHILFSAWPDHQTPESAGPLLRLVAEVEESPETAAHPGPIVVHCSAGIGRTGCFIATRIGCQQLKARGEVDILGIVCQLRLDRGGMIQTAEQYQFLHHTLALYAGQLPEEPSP
The assay is described as follows: redox-dependent HePTP inhibition, mechanism study, biochemical, fluorescence (AID 2068). The assay is classed as functional.

For assay [8], the target named is Intestinal-type alkaline phosphatase (Homo sapiens, UniProt P09923). The assay is described as follows: activation of human intestinal alkaline phosphatase – biochemical, dose response (AID 488873). The assay is classed as functional.
The target in assay [9] is T3, Dual specificity protein phosphatase 6 (Rattus norvegicus, UniProt Q64346).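 Note: confirmatory in vitro dose-response testing of MKP-3 inhibition; recombinant His-tagged MKP-3 made in E. coli BL21 with OMFP substrate.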
T3 sequence (Q64346 whole entry): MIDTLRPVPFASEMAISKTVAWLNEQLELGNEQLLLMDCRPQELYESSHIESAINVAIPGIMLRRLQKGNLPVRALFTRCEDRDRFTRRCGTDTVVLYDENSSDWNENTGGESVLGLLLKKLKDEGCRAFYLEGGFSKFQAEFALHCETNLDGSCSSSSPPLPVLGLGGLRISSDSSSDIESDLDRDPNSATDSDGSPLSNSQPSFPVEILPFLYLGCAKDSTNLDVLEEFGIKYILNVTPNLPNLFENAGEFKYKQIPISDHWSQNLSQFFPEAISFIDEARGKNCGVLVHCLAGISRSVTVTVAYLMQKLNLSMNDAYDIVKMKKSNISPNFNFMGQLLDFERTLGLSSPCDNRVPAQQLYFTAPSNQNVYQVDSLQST
The assay is classed as functional.

A further assay concerns the target Keap1/Nrf2 (Homo sapiens, UniProt Q14145). In words: Keap1-Nrf2 protein-protein interaction inhibitors, dose response, biochemical, fluorescence polarization, cherry-picked samples (AID 588683).
For assay [10], the target named is 26S proteasome non-ATPase regulatory subunit 14 (Homo sapiens, UniProt O00487). The assay is described as follows: inhibition of proteasome subunit RPN11 – biochemical, fluorescence polarization, uHTS hits, confirmation (AID 602368). The assay is classed as functional.
The target in assay [11] is Serine/threonine-protein phosphatase PP1-alpha catalytic subunit (Homo sapiens, UniProt P62136). The assay is described as follows: PP1 phosphatase inhibitors, dose response, biochemical, fluorescence (AID 2394).
Assay [12] has as its target T4, Sentrin-specific protease 7 (Homo sapiens, UniProt Q9BQF6).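 Note: Luminescence-based dose-response confirmation of ultra-high-throughput screening hits, measuring inhibition of SENP7.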
T4 sequence (Q9BQF6 whole entry): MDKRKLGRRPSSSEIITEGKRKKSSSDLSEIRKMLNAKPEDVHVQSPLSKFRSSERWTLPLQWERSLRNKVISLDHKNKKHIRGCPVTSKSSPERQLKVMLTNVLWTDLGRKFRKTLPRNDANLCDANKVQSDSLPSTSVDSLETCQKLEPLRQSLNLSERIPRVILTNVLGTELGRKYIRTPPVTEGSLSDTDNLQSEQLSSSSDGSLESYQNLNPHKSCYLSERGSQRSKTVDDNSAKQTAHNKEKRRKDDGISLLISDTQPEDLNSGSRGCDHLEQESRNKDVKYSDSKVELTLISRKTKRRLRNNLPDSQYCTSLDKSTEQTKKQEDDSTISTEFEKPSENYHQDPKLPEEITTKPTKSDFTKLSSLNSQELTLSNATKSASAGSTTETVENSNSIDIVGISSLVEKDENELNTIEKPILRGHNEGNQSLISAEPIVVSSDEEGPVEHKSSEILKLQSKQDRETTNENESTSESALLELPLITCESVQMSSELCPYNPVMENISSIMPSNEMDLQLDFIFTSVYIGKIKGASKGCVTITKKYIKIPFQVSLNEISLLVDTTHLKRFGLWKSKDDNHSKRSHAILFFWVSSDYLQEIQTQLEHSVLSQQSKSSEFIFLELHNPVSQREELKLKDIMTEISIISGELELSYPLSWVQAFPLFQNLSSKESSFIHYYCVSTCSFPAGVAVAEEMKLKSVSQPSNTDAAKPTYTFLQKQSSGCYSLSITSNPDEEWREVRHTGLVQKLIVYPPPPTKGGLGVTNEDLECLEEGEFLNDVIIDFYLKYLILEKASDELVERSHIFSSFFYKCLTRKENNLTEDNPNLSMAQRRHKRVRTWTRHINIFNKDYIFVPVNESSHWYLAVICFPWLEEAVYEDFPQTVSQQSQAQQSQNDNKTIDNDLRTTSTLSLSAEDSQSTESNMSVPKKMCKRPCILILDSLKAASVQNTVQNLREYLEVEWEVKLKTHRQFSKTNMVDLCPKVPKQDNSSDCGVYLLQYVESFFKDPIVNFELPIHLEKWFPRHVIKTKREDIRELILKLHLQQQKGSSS
The assay is classed as functional.

Assay [13] has as its system Streptococcus sp. 'group A'. In words: growth inhibition of control SK(-) GAS strain, dose response, counter-screen for streptokinase expression inhibitor project, luminescence, kanamycin, BacTiterGlo, confirmation (AID 1900). The assay is classed as functional, organism-based. Background: Counterscreens check selectivity or assay interference.
For another assay, the system named is Streptococcus. In words: Group A Streptococcus viability loss, dose response, counter-screen for streptokinase expression inhibitor project, luminescence, BacTiterGlo (AID 1915).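 Note: potency for reduction of bacterial viability or growth.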 The assay is classed as functional, organism-based.
For another assay, the target named is Paired box protein Pax-8 (Homo sapiens, UniProt Q06710). The assay is described as follows: inhibitors of PAX8-driven TPO luciferase reporter, dose response, RMG-I cells, cherry-pick (AID 687027).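 Note: luciferase reporter driven by Pax8 target thyroperoxidase promoter measured by SteadyGlo luminescence.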 The assay is classed as functional, cell-based.
Paired box protein Pax-8, sequence (Q06710 whole entry): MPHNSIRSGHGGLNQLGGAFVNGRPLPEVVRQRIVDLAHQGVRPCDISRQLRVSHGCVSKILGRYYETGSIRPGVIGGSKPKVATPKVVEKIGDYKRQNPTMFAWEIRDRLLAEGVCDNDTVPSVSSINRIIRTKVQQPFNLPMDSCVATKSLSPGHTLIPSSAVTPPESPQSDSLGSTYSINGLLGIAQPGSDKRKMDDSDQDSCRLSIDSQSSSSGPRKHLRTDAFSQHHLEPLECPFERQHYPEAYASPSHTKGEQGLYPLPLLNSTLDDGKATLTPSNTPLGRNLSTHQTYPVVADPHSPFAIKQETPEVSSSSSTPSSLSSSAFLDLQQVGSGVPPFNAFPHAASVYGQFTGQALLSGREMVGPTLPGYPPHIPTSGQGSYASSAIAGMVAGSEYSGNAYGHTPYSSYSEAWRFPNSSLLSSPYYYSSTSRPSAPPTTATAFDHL

T1 sequence (P51452 whole entry): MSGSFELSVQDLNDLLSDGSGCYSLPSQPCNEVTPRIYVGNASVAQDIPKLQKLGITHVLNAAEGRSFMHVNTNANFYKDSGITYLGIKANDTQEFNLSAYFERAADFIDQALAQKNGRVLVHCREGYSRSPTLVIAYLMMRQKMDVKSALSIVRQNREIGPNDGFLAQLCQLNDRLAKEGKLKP
Intestinal-type alkaline phosphatase, sequence (P09923 whole entry): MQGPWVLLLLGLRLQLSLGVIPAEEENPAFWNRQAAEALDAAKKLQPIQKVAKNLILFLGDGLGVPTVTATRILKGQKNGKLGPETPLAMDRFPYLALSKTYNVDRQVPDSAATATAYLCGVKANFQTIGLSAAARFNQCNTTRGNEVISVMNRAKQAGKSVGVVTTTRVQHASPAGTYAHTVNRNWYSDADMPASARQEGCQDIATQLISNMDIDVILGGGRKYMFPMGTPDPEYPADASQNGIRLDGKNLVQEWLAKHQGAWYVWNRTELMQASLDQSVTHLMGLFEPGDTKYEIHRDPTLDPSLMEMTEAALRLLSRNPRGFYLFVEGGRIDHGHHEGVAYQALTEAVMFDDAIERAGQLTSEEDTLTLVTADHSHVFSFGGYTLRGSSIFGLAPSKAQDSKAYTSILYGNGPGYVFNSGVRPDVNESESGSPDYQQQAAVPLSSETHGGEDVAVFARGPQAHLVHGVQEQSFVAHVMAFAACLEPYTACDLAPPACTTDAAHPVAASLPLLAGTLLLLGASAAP
Photoreceptor-specific nuclear receptor, sequence (Q9Y5X4 whole entry): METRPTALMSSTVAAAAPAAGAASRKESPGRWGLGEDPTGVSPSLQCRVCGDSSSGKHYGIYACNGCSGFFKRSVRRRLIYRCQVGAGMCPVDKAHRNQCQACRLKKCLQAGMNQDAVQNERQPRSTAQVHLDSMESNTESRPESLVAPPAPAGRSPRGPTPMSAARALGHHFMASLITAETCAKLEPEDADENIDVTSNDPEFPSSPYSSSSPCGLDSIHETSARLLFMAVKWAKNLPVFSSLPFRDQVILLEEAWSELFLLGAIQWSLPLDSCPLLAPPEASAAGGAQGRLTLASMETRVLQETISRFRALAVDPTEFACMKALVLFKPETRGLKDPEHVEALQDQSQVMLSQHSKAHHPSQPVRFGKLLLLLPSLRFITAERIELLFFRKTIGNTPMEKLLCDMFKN
26S proteasome non-ATPase regulatory subunit 14, sequence (O00487 whole entry): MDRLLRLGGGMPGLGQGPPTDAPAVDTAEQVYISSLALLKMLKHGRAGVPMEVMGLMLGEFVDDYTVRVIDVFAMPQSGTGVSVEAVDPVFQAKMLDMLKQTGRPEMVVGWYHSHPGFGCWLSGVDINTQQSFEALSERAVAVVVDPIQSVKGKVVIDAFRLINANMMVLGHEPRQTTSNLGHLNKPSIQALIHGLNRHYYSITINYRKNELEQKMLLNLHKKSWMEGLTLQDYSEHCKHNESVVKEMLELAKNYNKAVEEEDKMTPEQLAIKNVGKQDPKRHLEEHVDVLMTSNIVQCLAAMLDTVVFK
Protein disulfide-isomerase A6, sequence (Q15084 whole entry): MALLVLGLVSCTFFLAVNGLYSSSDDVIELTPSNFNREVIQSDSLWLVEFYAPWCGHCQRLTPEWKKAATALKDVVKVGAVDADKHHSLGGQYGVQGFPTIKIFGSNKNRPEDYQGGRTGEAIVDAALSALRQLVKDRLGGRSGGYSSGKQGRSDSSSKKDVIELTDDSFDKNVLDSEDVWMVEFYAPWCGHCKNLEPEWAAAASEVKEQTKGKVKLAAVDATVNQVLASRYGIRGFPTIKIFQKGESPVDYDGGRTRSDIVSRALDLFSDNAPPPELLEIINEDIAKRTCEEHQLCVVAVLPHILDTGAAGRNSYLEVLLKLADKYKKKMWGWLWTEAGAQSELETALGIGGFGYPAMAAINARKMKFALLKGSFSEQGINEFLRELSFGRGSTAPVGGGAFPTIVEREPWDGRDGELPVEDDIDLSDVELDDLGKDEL
Keap1/Nrf2, sequence (Q16236 whole entry): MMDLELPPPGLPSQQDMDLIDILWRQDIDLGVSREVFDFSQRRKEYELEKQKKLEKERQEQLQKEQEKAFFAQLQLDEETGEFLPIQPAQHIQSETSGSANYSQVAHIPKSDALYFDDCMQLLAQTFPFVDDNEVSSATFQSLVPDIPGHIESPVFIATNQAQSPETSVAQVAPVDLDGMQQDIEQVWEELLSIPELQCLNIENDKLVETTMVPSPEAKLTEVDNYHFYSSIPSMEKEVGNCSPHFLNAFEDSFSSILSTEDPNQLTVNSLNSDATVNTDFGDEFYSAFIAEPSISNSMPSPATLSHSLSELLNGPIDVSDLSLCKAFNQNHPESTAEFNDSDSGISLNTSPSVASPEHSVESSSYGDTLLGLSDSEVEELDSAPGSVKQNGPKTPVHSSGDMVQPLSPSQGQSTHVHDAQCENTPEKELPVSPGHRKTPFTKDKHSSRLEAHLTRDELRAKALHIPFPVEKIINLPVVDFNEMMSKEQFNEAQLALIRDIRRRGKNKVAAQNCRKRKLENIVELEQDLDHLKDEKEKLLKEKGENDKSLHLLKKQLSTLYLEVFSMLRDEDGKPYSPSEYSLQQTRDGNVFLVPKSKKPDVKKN
Keap1/Nrf2, sequence (Q14145 whole entry): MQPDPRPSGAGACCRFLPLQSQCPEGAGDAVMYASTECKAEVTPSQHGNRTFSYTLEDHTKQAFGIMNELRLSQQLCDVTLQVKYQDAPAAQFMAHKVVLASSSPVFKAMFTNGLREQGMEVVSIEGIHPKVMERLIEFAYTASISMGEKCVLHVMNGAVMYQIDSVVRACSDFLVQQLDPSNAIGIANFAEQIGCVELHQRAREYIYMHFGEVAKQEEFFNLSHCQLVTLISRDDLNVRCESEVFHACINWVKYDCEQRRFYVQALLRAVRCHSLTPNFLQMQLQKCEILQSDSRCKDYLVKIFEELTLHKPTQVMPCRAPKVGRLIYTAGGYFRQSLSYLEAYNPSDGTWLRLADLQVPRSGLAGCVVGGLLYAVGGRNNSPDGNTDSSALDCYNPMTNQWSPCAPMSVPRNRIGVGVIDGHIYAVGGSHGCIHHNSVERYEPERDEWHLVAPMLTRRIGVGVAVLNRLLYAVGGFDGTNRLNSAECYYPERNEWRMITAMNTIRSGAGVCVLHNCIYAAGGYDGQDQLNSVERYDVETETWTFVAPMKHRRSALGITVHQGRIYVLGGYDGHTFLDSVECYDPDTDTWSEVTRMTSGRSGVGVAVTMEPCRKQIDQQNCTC
Likely tRNA 2'-phosphotransferase, sequence (Q5A7N4 whole entry): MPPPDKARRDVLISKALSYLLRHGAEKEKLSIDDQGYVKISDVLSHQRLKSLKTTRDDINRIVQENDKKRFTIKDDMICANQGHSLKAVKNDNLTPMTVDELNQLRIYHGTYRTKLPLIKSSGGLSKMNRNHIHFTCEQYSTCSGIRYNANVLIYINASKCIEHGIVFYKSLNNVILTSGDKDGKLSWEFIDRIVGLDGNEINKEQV
Serine/threonine-protein phosphatase PP1-alpha catalytic subunit, sequence (P62136 whole entry): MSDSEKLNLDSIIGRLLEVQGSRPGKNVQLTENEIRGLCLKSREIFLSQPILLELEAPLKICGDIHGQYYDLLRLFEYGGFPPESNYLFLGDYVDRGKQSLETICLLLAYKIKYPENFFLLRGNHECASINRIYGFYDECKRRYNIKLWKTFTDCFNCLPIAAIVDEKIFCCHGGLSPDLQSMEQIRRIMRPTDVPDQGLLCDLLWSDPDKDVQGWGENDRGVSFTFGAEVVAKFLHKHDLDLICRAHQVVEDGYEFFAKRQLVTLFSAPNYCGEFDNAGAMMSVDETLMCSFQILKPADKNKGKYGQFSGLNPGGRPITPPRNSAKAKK

The term IC50 denotes the concentration that inhibits the measured activity by half. In general, AC50 refers to the concentration giving half of the maximal activity seen. Consider `COC(=O)c1cc(C)nc2c1C(=O)C(=O)C=C2N1CCOCC1`, for which the values for the IC50 in [1] and in assay [2] were > 39.8 µM (not active) and 3.21 µM (active), respectively. Also, the AC50 in [3] is 45.1 µM (active).
The term EC50 denotes the midpoint of the concentration-response curve. `NS(=O)(=O)c1cc(C(=O)NC2CCSc3ccccc32)ccc1Cl` (stereo unspecified): the IC50 in assay [4] was < 1.23 µM (inactive); in assay [5], 4.4 µM (active); in assay [6] it was 0.065 µM (active); in [7] it was 0.066 µM (active); in assay [9], 2.96 µM (active) and > 100 µM (inactive); in assay [10], 0.763 µM (active). Also, the EC50 in assay [8] was 49.4 µM (active). Besides, the AC50 at Keap1/Nrf2 was > 52 µM (inactive).
As for `CCOC(=O)C1=C(C)OC2(O)c3ccccc3C(=O)C12O` (stereo unspecified), the IC50 in [11] was 49 µM (not active); in assay [12] it was 3.27 µM (active).
On to `O=C1c2ccccc2C(=O)c2[nH]c(O)nc21`, for which the EC50 was 4.23 µM (active) in assay [13] and > 150 µM (not active) with Streptococcus. Also, at Paired box protein Pax-8, the AC50 is 5.72 µM (active).
